# What was measured:
# C57/BI6 mice = assay: Plasma total GLP-1 and total GIP in normal mice one hour after oral administration; format: in vivo; conditions: for total circulating GIP levels, result in words / total circulating GLP-1 levels, result in words: 1 hr after giving the compound, compared to vehicle; for Total GIP (plasma) / Total GLP-1 (plasma) / Total GIP, fold change vs. Vehicle / Total GLP-1, fold change vs. Vehicle: C56BI6/J mice, one hour following oral administration of 30 mg/kg; for Total GIP (plasma) / Total GLP-1 (plasma): fasted, mean ± s.e.m.
# Protocol: GPR119 Agonists Elevate GIP and GLP-1 in Normal Mice
# Male C57/BI6 mice 10 weeks of age were fasted for 15 hrs and randomly grouped (n=6-10) to receive vehicle (0.5% HPMC/0.1% Tween) or a GPR119 agonists of the present invention at 30 mg/kg. 1 hr after compound administration blood was collected by cardiac-stick following iso-fluorane aneasthesia. Blood for analysis of plasma levels of total GLP-1 and total GIP was placed in a K2-EDTA containing tubes supplemented with a DPP-IV inhibitor to prevent degradation of the incretin hormones (30 µM final concentration). Total GLP-1 was determined using an assay from Meso Scale Discovery (Gaithersburg, Md.). GIP was determined using an ELISA assay from Linco (St. Charles, Mo.). For each treatment group Table 2 summarizes the average plasma levels of total GLP-1 (±s.e.m.) from the number of animals in each treatment group as indicated.
# Table 3 summarizes the average plasma levels of total GIP (±s.e.m.) from the number of animals in each treatment group as indicated.
# C57BI6/J mice = assay: Oral glucose tolerance test (OGTT) in normal mice one hour after oral administration; format: in vivo; conditions: for glucose area-under-the curve (AUC) over the 120 minute time course, result in words: OGTT in mice, vs vehicle; for % of Vehicle (glucose cAUC): OGTT one hour after p.o. dosing; for % of Vehicle (glucose cAUC) / Glucose cAUC (baseline corrected glucose area under the curve during OGTT): Examples 30 mg/kg, vildagliptin 10 mg/kg, n=10; for Glucose cAUC (baseline corrected glucose area under the curve during OGTT): fasted male C57BI6/J mice, OGTT 2 g dextrose/kg one hour after p.o. dosing, mean ± s.e.m., 120 min
# Protocol: In Vivo Effects of GPR119 Agonists on Incretin Hormone Release and Glucose Homeostasis in Mice
# Vehicle or compounds were delivered orally via a gavage needle (p.o. at 10 mls/kg). The effect of the GPR119 agonists on glucose homeostasis was assessed by conducting an oral glucose tolerance test (OGTT; 2 g dextrose per kg body weight) one hour after administration of vehicle or test compounds. Whole blood glucose levels were determined prior to compound administration, immediately before and 10, 20, 30, 45, 60, 90 and 120 after glucose administration, using a Glucometer (Freestyle, Therasense).
# Table 1 summarizes the glucose excursions during the OGTT as the average baseline corrected glucose area under the curve (cAUC; ±s.e.m.) from the animals in each treatment group.
Compound,"total circulating GIP levels, result in words (C57/BI6 mice)","total circulating GLP-1 levels, result in words (C57/BI6 mice)",Total GIP (plasma) (C57/BI6 mice),Total GLP-1 (plasma) (C57/BI6 mice),"Total GIP, fold change vs. Vehicle (C57/BI6 mice)","Total GLP-1, fold change vs. Vehicle (C57/BI6 mice)","glucose area-under-the curve (AUC) over the 120 minute time course, result in words (C57BI6/J mice)",% of Vehicle (glucose cAUC) (C57BI6/J mice),Glucose cAUC (baseline corrected glucose area under the curve during OGTT) (C57BI6/J mice)
"CC(C)OC(=O)N1CCC(COc2ccc(-c3ccc(S(C)(=O)=O)cc3F)nc2)CC1 [Example 77, 1-Methylethyl 4-[({6-[2-fluoro-4-(methylsulfonyl)phenyl]-3-pyridinyl}oxy)methyl]-1-piperidinecarboxylate]",increase,increase,182 ± 12 pg/mL,7.5 ± 2.0 pg/mL,2.2,3.3,significantly lowered,21%,6884 ± 694 mg·min/dL
"CC(C)c1noc(N2CCC(COc3ccc(-c4ccc(S(C)(=O)=O)cc4F)nc3)CC2)n1 [Example 83, 2-[2-Fluoro-4-(methylsulfonyl)phenyl]-5-[({1-[3-(1-methylethyl)-1,2,4-oxadiazol-5-yl]-4-piperidinyl}methyl)oxy]pyridine]",increase,increase,275 ± 29 pg/mL,6.8 ± 1.8 pg/mL,3.3,3.0,significantly lowered,23%,6754 ± 286 mg·min/dL
